The values below come from a melting point compilation (Tetko et al.; mined from patent text by program, amines drawn as free bases though some values may be those of a salt).

For `N#CCC(=O)NCc1ccccc1Cl`, the melting point – broadly, the temperature of the solid-liquid transition – was 102 to 104 °C.

Take `ClCC1OCC(OCc2ccccc2)CO1` (configuration not stated): the melting point is 38 to 39 °C. The value for `COc1cccc(-c2cn(N)c(N)n2)c1` was 181 to 182 °C. The value for `CC1=C(C)C(C)(OC(N)=O)N(c2ccc(Cl)c(Cl)c2)C1=O` (configuration not stated) was 141 to 142 °C; that for `FC(F)(F)c1nc(Cl)c(-c2ccccc2)c(-c2ccccc2)n1` was 105 to 107 °C; that for `O=C1CCSc2cc(-c3ccccc3)ccc21` was 85 to 87 °C.

Consider `N#CC(C#N)CC(CC(F)(F)C(F)(F)C(F)(F)C(F)F)S(=O)(=O)C(F)(F)F` (configuration not stated), for which the melting point fell in the range of 144 to 146 °C.

For the molecule `COc1cc2c(cc1OC)-c1c(C(N)=O)c(-c3cc(C)c(O)c(C)c3)c(C)n1CC2`, the melting point was in the range of 229 to 231 °C. The figure for `COCCOc1cccc2cc(-c3nnn[nH]3)c(=O)oc12` is 215 °C. `C=CCC(CC=C)(C(=O)NO)S(=O)(=O)c1ccc(OC)cc1` came in with a melting point of 114 to 116 °C. The figure for `CC(=O)OCS(=O)(=O)c1c(F)cc(-c2c(-c3ccccc3)noc2C)cc1F` is 165 to 166 °C. The value for `O=C1CC2CS(=O)c3ccccc3C2=NN1c1ccc(Cl)cc1` (configuration not stated) was 190 to 192 °C. The figure for `N#Cc1cnc2cc(-c3ccc(CN4CCOCC4)cn3)ccc2c1Nc1ccc(Oc2ccccc2)cc1` is 219 to 221 °C.

For the molecule `OC1COC(n2c(Cl)nc3cc(Cl)c(Cl)cc32)C(O)C1O` (configuration not stated), the melting point amounted to 184 °C.

`C/C(=C\c1ccc(C(=O)O)cc1)c1ccc(O)c(C(C)(C)C)c1` returned a melting point of 209 °C. `COc1ccc2nccc(CCCC3CCCNC3)c2c1` (configuration not stated): the melting point worked out at 110 °C.

The molecule `Clc1cc(I)cnc1Cl` yielded a melting point of 55 to 57 °C. The figure for `CCOC(=O)Cn1c(=O)n(Cc2ccc(Cl)c(Cl)c2)c(=O)c2ccccc21` is 121 to 122 °C; for `CCn1nnc(-c2ccc(CN3CCC(C(O)(c4ccc5c(c4)OC(F)(F)O5)c4ccc5c(c4)OC(F)(F)O5)CC3)cc2)n1` it is 79 to 81 °C; for `COC(=O)c1cccc(OCc2ncc3ccccc3n2)c1` it is 78 to 80 °C.

`CCCN1C[C@H]2CCc3cccc(O)c3[C@H]2C1` (relative stereo) came in with a melting point of 180 to 184 °C.

The molecule `CCc1cn(C2CC(O)C(CCC(O)C(C)Oc3ccc(Cl)cc3Cl)O2)c(=O)[nH]c1=O` (mixture of isomers) returned a melting point of 108 to 111 °C. The figure for `COc1ccc(C2C=C3CCN(Cc4ccccc4)CC3C(CO)C2CO)cc1` (configuration not stated) is 145 to 147 °C; for `Cc1cc(C(=O)NCCc2ccc(CCC(=O)O)cc2)n[nH]1` it is 202 to 205 °C. The figure for `O=[N+]([O-])c1ccc(C(Nc2ccccc2)P(=O)(Oc2ccccc2)Oc2ccccc2)cc1` (configuration not stated) is 158 to 160 °C; for `FC(F)(F)c1cccc(Oc2cccc(-c3nnc(Nc4ccc(Cl)c(Cl)c4)s3)c2)c1` it is 212 to 213 °C. The figure for `CCOC(=O)C1(C(=O)OCC)CCC2(c3cc(OC)c(OC)cc3CCN2C(C)=O)C(C2c3cc(OC)c(OC)cc3CCN2C)C1` (configuration not stated) is 166 to 168 °C; for `CN(C)C=CC(=O)CC(C)(C)C` it is 72 to 74 °C; for `COc1cc2c(cc1OC(C)C)-c1c(Br)c3c(n1CC2)C(=O)N(C(C)(C)C)CCOC3` it is 160 to 162 °C. The molecule `Cc1occc1C(=O)Nc1ccc(Cl)c(C2OCCO2)c1` returned a melting point of 134 to 135 °C. The figure for `COc1cccc2c1OC(C(C)C)C2=O` (configuration not stated) is 46 to 47 °C; for `N#CC1CC2CCC(C1)N2Cc1ccccc1` (configuration not stated) it is 119 to 120 °C; for `COc1c([N+](=O)[O-])cc(Br)c2c1C(=O)CC2` it is 138 to 139 °C.

In turn, `COC(=O)c1cccc(-c2cccc(Oc3ccc(Cl)c(Cl)c3)n2)c1` showed a melting point of 133 to 134 °C. The value for `Cc1cnn(-c2cc(N)c(Cl)cc2Cl)c(=O)c1Br` was 211 °C; that for `O=C1c2ccccc2CN1C1CCN(c2ccc(C(OCCCc3ccccc3)c3ccccc3)cc2)CC1` (configuration not stated) was 117 to 120 °C. Take `CNC(=O)C1(Oc2ccc3c(c2)c(-c2cc4cccnc4[nH]2)cn3C)CCC1`: the melting point lay within 249 to 250 °C. The figure for `O=C(NC1CCCCC1)NS(=O)(=O)c1cnccc1NC1CCCCC1` is 165 to 167 °C; for `CCOC(=O)/C=C/c1cccc(-c2ccc(OCC)c(OC)c2)c1` it is 89 to 91 °C. The value for `COC(=O)c1ccc(C(=O)NS(=O)(=O)c2ccc(OC(F)(F)F)cc2)cn1` was 221 to 223 °C; that for `CC(C)C(=O)NC(=O)N1C(=O)Cc2cc(Cl)ccc21` was 139 to 141 °C.

With `COC(=O)c1ccc(CNC(=O)C2Cc3ccccc3N2S(=O)(=O)c2ccc(-c3ccc(F)cc3)cc2)cc1` (configuration not stated), the melting point is 66 to 73 °C.

In turn, `CC(C)CCOc1ccc([N+](=O)[O-])cc1OCCC(C)C` displayed a melting point of 44 to 47 °C.

Consider `Nc1ccc(N2C(=O)CCCC2c2ccc(Cl)c(Cl)c2)cc1` (configuration not stated), for which the melting point is 177 to 178 °C. The value for `CN(C)CCCc1ccc(S(=O)(=O)N2CCC(Nc3nc(N)c(C(=O)c4c(F)cccc4F)s3)CC2)cc1` was 117 to 120 °C.

The molecule `CN(C(=S)Nc1ccc(NNC=O)cc1)c1ccccc1` gave a melting point of 137 to 139 °C. The figure for `N#CC(C(=O)O)=C(c1ccc(F)cc1)c1ccc(F)cc1` is 180 to 181 °C; for `CCC(Oc1ccccc1F)C(=O)OC1CC(O)C=C2C=CC(C)C(CCC3CC(O)CC(=O)O3)C21` (mixture of isomers) it is 136 to 138 °C; for `CCN(CC)C1CCN(c2cccc(-c3cnn4c(N)c(-c5ccc(F)cc5)c(C)nc34)c2)CC1` it is 208 to 210 °C. Take `CCOC(=O)c1ncn(-c2nccs2)c1S(N)(=O)=O`: the melting point lay within 84 to 85 °C. The figure for `Cn1ccc(=O)c(-c2cccc(C(F)(F)F)c2)c1` is 122 to 123 °C; for `COC1C(OC(=O)c2ccccc2)C(COC(=O)c2ccccc2)OC1n1cc([N+](=O)[O-])c(=O)[nH]c1=O` (configuration not stated) it is 187 to 189 °C; for `COc1ccc(S(=O)(=O)Nc2cccnc2Nc2ccc(O)cc2)cc1` it is 178 to 179 °C. In turn, `Cc1ccc2c(c1)CCC1=C2CCC(=O)N1C` returned a melting point of 122 °C. As to `CCc1c(CCNC(=O)CCCCC(=O)NC(C)(C)Cc2ccc3c(c2CC)OCO3)ccc(OC)c1OC`, the melting point was 103 to 104 °C. The figure for `N#Cc1cccnc1CC1C(=O)C2(COc3cc4c(cc32)OCCO4)c2ccccc21` (configuration not stated) is 230 to 233 °C; for `COC(C)c1cccc2[nH]c3cnc(C(=O)OC(C)C)c(C)c3c12` (configuration not stated) it is 153 to 154 °C; for `COC(=O)c1ccc(-c2n[nH]c3ccccc23)o1` it is 157 to 159 °C. The value for `CCNC(=O)c1ccc(Nc2nc(OCC3CCCCC3)c3nc[nH]c3n2)cc1` was 156 to 158 °C; that for `O=C(c1ccc(-c2cccc3ccccc23)nc1)N1Cc2cccn2Cc2ccccc21` was 155 to 158 °C. As to `CC(=O)C1CCC2C3CCC4CC(O)C(O)CC4(C)C3C(=O)CC12C` (configuration not stated), the melting point lay in the range of 194 to 198 °C. The value for `CCOC(=O)c1cnc2c(-c3cccc(Cl)c3)cnn2c1Cl` was 140 to 141 °C; that for `CCOC(=O)c1cn(C)nc1Nc1ccc(C(F)(F)F)cc1N` was 162 °C.

Molecule `CCCCc1nc2cccc(C(=O)OC)c2n1Cc1ccc2nc(-c3ccccc3-c3nnn[nH]3)n(C)c(=O)c2c1` had a melting point of 240 to 242 °C. The value for `CCOC(=O)c1cnc2n(c1=O)C(C)CCC2=NNC(=O)c1ccccc1` (configuration not stated) was 209 to 210 °C; that for `CCN(CC)C(=O)c1ccc(C(=C2CCN(Cc3ccccc3)CC2)c2cccc(OC)c2)cc1` was 100 to 110 °C. The figure for `O=C(Nc1ccccc1)Nc1ccnc(O)c1` is 198 to 200 °C.

Molecule `CCC(C)CNc1cccc(-c2ccnc3c(C(=O)c4cccs4)cnn23)c1` (configuration not stated) showed a melting point of 210 to 212 °C. The figure for `Cc1cccc(C=CCC(CCC(=O)O)(C(=O)C=Cc2ccc(Cl)cc2)c2ccccc2)c1` (configuration not stated) is 135 to 144 °C; for `COc1c(C(N)=O)nnn1Cc1ccccc1Cl` it is 185 to 187 °C. The value for `Cc1nc(-c2ccc(C(=O)N3Cc4cccnc4Nc4ccccc43)c(Cl)c2)n[nH]1` was 196 to 198 °C; that for `C=Cc1ccccc1C1C(C(=O)OC)=C(C)NC(C)=C1C(=O)OC` was 140 to 148 °C; that for `CCCN1C(=O)C(NC(=O)Nc2cccc(C)c2)N=C(N(C)C2CCCCC2)c2ccccc21` (single isomer, unassigned; (+)) was 126 to 127 °C.

In turn, `Cc1nc(C)c(Cl)c(NCc2nccc(SCCCSCCO)c2C)n1` gave a melting point of 134 to 137 °C. The value for `N#Cc1ccc(OCc2ccc3c(c2)OCO3)cc1OC(C(=O)O)c1ccccc1` (racemic) was 68 to 70 °C; that for `COc1c(Br)c(-c2csc(C(C)C)n2)cc2oc(=O)c(Cl)c(C)c12` was 186 °C; that for `NC(=NO)c1ncn2c1[C@@H]1CCN1C(=O)c1cc(F)ccc1-2` was 248 to 250 °C. The figure for `CC(C)(C)OC(=O)[C@H](Cc1ccc(O)cc1)NC(=O)c1c(Cl)cccc1Cl` is 177 to 178 °C; for `O=C(Cc1ccc(F)cc1)Nc1ccc(-n2nc(C3CC3)cc2C2CC2)cc1` it is 141 to 148 °C; for `Cc1cccc(C)c1-c1cccc2c1CC(CN)O2` (configuration not stated) it is more than 250 °C. `CCOC(=O)Cc1csc(NC(=S)Nc2cc(Cl)ccc2C)n1` had a melting point of 177 to 179 °C. The figure for `COc1cc(C)c(Cl)cc1C(=O)Cl` is 106 to 107 °C; for `Cc1ccc2c(c1)cc(C(=O)O)n2CC(=O)OC(C)(C)C` it is 174 to 176 °C. The value for `Nc1ccccc1C(=O)C1CCCCC1` was 74 to 75 °C; that for `COC(=O)C(C)Oc1ccc(Oc2ncc(Cl)cc2[N+](=O)[O-])cc1` (configuration not stated) was 91 to 92 °C. For `O=c1[nH]c(N[N+](=O)[O-])ncc1Cc1ccncc1`, the melting point was 228 to 229 °C. The value for `c1csc(-c2ccc(-c3cccs3)c3nsnc23)c1` was 121 to 122 °C.
